From the NIST ThermoML archive (doi:10.1021/je800713c)

Experiments:
[1] = mn = molality of the nth substance listed, in mol/kg; settings: 298.15 K, 101 kPa, Liquid
[2] = cn = amount concentration of the nth substance listed, in mol/dm3; settings: 298.15 K, 101 kPa, Liquid, Alternating current cell with electrodes

CC(C)C[C@H](NC(=O)CN)C(=O)O [glycyl-L-leucine] + O
[1], Vibrating tube method
Settings | mass density [kg/m3]
m1 = 0.01944 | 1000.64
m1 = 0.02958 | 1001.13
m1 = 0.0395 | 1001.61
m1 = 0.04928 | 1002.08
m1 = 0.057 | 1002.44
m1 = 0.07128 | 1003.12
m1 = 0.07696 | 1003.39
m1 = 0.09125 | 1004.06

CC(C)[C@H](NC(=O)CN)C(=O)O [glycyl-L-valine] + O
[1], Vibrating tube method
Settings | mass density [kg/m3]
m1 = 0.02261 | 1000.88
m1 = 0.03982 | 1001.76
m1 = 0.06223 | 1002.9
m1 = 0.07858 | 1003.73
m1 = 0.1017 | 1004.89
m1 = 0.1513 | 1007.38
m1 = 0.1799 | 1008.77

NCC(=O)NCC(=O)O [glycylglycine] + O
[1], Vibrating tube method
Settings | mass density [kg/m3]
m1 = 0.06033 | 1003.05
m1 = 0.08146 | 1004.21
m1 = 0.1018 | 1005.33
m1 = 0.1481 | 1007.84
m1 = 0.2504 | 1013.33
m1 = 0.2965 | 1015.78
m1 = 0.3421 | 1018.08

CCCC(=O)[O-].[Na+] [sodium butyrate] + O
Settings | mass density [kg/m3] | molar conductivity [S·m2/mol]
[1], m1 = 0.5 | 1016.31 | –
[1], m1 = 1 | 1033.73 | –
[1], m1 = 1.5 | 1049.36 | –
[1], m1 = 2 | 1064.03 | –
[2], c1 = 0.0003234 | – | 0.00796
[2], c1 = 0.001116 | – | 0.00795
[2], c1 = 0.001273 | – | 0.00794
[2], c1 = 0.001488 | – | 0.00792
[2], c1 = 0.00188 | – | 0.00788
[2], c1 = 0.002076 | – | 0.00787
[2], c1 = 0.00243 | – | 0.00784
[2], c1 = 0.003167 | – | 0.00766
[2], c1 = 0.006298 | – | 0.00753
[2], c1 = 0.008849 | – | 0.00744
[2], c1 = 0.01124 | – | 0.00737
[2], c1 = 0.01353 | – | 0.00732
[2], c1 = 0.0155 | – | 0.00727
[2], c1 = 0.01721 | – | 0.00724
[2], c1 = 0.01916 | – | 0.0072
[2], c1 = 0.02091 | – | 0.00717
[2], c1 = 0.02284 | – | 0.00714
[2], c1 = 0.02481 | – | 0.0071
[2], c1 = 0.02647 | – | 0.00707

O [water] + CC(C)C[C@H](NC(=O)CN)C(=O)O
Settings | mass density [kg/m3]
[1], Vibrating tube method, m2 = 0 | 999.705

O [water] + CC(C)[C@H](NC(=O)CN)C(=O)O
Settings | mass density [kg/m3]
[1], Vibrating tube method, m2 = 0 | 999.705

O [water] + NCC(=O)NCC(=O)O
Settings | mass density [kg/m3]
[1], Vibrating tube method, m2 = 0 | 999.705
